Assays:
Type in all cases: cell-based, human
[1] = tested on: hPSC-derived skin organoids; assay: Pigmentation of hair follicles in skin organoids; conditions: pre-treated during days 8-12
Protocol: After 4 days of incubation, 25 μl of CDM containing a 250 ng ml^−1 FGF-2 (50 ng/ml final concentration) and 1 μM LDN-193189 (200 nM final concentration) was added to the pre-existing 100 μl of media in each well. After an additional 4 days (8 days total), 250 of CDM was added to the media. For some experiments, CDM containing 18 μM CHIR99021 (3 μM final concentration; Stemgent) was added to the pre-existing 125 μl of media in each well. During day 12 transfer to OMM, aggregates were resuspended in ice cold undiluted GFR Matrigel and placed in approximately 25 μl droplets on the surface of a 100 mm bacterial culture plate. After at least 30 minutes of incubation at 37° C., the droplets were bathed in 10 ml of OMM. To avoid Matrigel droplet induction, the aggregates can be washed and plated individually into each well of a 24-well low cell adhesion plate in OMM containing 1% GFR Matrigel. After 18 days of differentiation, the CHIR was removed from the medium by washing and the droplet aggregates were moved to a floating culture. Droplets were carefully dislodged using a wide-mouth 1000P tip and transferred to 75 ml of fresh OMM in a 125 ml disposable spinner flask (Corning). Spinner flasks were maintained on an in-incubator stir plate (Thermo Scientific) at 65 RPM for up to 180 days of differentiation. […]

[2] = tested on: hPSC-derived aggregates; assay: Structures formed under treatment plans during days 0-12 of differentiation; conditions: treatment after initial 10 μM SB+4 ng/ml FGF; with or without insulin
From the text: A-b, Treatment conditions during days 0-12 were: no treatment (NT), LDN (from d4-d12), LDN/FGF (from d4-d12), and LDN/FGF (from d4-d12)+CHIR (from d8-d12). From days 22-55, skin organoids formed in LDN/FGF and LDN/FGF/CHIR conditions with or without insulin. […] We detached the droplet embedded aggregates from the plate and placed them in a rotating or shaking floating culture in OMM for up to 60 days. By 30-55 days of culture, skin organoids consisted of KRT5^+ basal keratinocytes and PDGFRa^+ dermal fibroblasts (FIGS. 7A-7C). The skin organoids developed as a cyst with an inner layer of epidermis and an outer layer of dermis. We next wondered what mechanism controlled the induction of skin organoids and tested various treatment plans with or without insulin in the CDM during days 0-12 of differentiation (FIGS. 8A-8B). After 12 days, the aggregates were transferred to Matrigel in OMM as previously mentioned. […] Intriguingly, without insulin, the skin organoids were 2.5-3.5 times larger on average than insulin treated aggregates. We chose to continue our analysis with FGF/LDN and FGF/LDN/CHIR (without insulin) treated aggregates.

[3] = tested on: WA25 hESC and mND2-0 hiPSC aggregates; assay: Keratinocyte (non-neural ectoderm) induction in hPSC aggregates in 3D culture; conditions: n=40 aggregates per cell line across 4 experiments
Protocol: We sought to develop a novel human non-neural induction protocol that could generate skin organoids. Human pluripotent stem cells of the WA25 cell line were dissociated in Essential 8 (E8) culture medium into single cells. Approximately 5000 cells were plated in each well of a 96-well V-bottom plate. Following 24 hours in culture, pluripotent cell aggregates that formed were transferred to 96-well U-bottom plates and cultured in a differentiation medium in the presence of Matrigel. This was considered “day 0” of differentiation (see FIG. 1). In comparing our mouse pluripotent stem cell (mPSC) system with our human (hPSC) system, it was observed that hPSCs appear to produce different endogenous signaling molecules that must be added as exogenous factors for mPSC cultures. Assays were performed to identify key factors dictating non-neural ectoderm induction in hPSC aggregates. It was determined that treating hPSC aggregates with the TGF signaling inhibitor SB-431542 in a chemically-defined medium with or without a low concentration of BMP4 (<5 ng/ml) (CDM; Table 1) produces a surface epithelium of TFAP2^+ (AP2) non-neural ectoderm cells (FIGS. 3A-3F). After a 10-12 day incubation, the aggregates were transferred to a floating culture on low-cell attachment plates in organoid maturation medium (OMM; see Table 2). […]

[4] = tested on: hPSC-derived skin organoids; assay: Skin organoid size with or without insulin in the differentiation medium; conditions: LDN/FGF and LDN/FGF/CHIR conditions; n=6 organoids/condition
From the text: A-b, Treatment conditions during days 0-12 were: no treatment (NT), LDN (from d4-d12), LDN/FGF (from d4-d12), and LDN/FGF (from d4-d12)+CHIR (from d8-d12). From days 22-55, skin organoids formed in LDN/FGF and LDN/FGF/CHIR conditions with or without insulin.
We detached the droplet embedded aggregates from the plate and placed them in a rotating or shaking floating culture in OMM for up to 60 days. By 30-55 days of culture, skin organoids consisted of KRT5^+ basal keratinocytes and PDGFRa^+ dermal fibroblasts (FIGS. 7A-7C). The skin organoids developed as a cyst with an inner layer of epidermis and an outer layer of dermis. We next wondered what mechanism controlled the induction of skin organoids and tested various treatment plans with or without insulin in the CDM during days 0-12 of differentiation (FIGS. 8A-8B). After 12 days, the aggregates were transferred to Matrigel in OMM as previously mentioned. […] Intriguingly, without insulin, the skin organoids were 2.5-3.5 times larger on average than insulin treated aggregates. We chose to continue our analysis with FGF/LDN and FGF/LDN/CHIR (without insulin) treated aggregates.

[5] = tested on: hPSC-derived aggregates; assay: Mesoderm induction (Brachyury immunohistochemistry) in hPSC aggregates
Protocol: Representative Brachyury (BRA) immunohistochemistry in day 4 aggregates treated with 10 ng/ml BMP4 (a), 10 μM SB (b), and 10 μM SB+2.5 ng/ml BMP4 (c) on day 0. Scale bars, 50 μm.
With human PSCs, TGFβ inhibition and endogenous BMP signaling promotes formation of TFAP2+ ECAD+ surface ectoderm by 3-6 days of differentiation.

Cc1c[nH]c(-c2cnc(NCCNc3ccc(C#N)cn3)nc2-c2ccc(Cl)cc2Cl)n1 [CHIR99021]
organoids producing pigmented hair follicles [1]: 75%

c1ccc2c(-c3cnn4cc(-c5ccc(N6CCNCC6)cc5)cnc34)ccnc2c1 [LDN, LDN-193189]
structures formed by aggregates [2]: primarily formed keratinocyte cyts

NC(=O)c1ccc(-c2nc(-c3ccc4c(c3)OCO4)c(-c3ccccn3)[nH]2)cc1 [SB, SB-431542]
aggregates generating a 3D spheroid comprising TFAP2+KRT5+ keratinocytes [3]: 100%

insulin: insulin component of the chemically-defined differentiation medium (CDM)
size (long-axis diameter) of skin organoids in insulin-free conditions relative to conditions with insulin [4]: 2.5-3.5 times

B1: bone morphogenetic protein-4 (protein, UniProt P12644 293-408, looked up)
Bone morphogenetic protein 4: SPKHHSQRARKKNKNCRRHSLYVDFSDVGWNDWIVAPPGYQAFYCHGDCPFPLADHLNSTNHAIVQTLVNSVNSSIPKACCVPTELSAISMLYLDEYDKVVLKNYQEMVVEGCGCR
notes: agonist of BMP signaling
induction of mesodermal (BRA+) cells ([5]; BMP treatment alone): mesoderm is induced | induction of mesodermal (Brachyury+) cells ([5]; low concentration of BMP-4 during non-neural ectoderm induction): not induced

Reference: US11021688B2, “Derivation of human skin organoids from pluripotent stem cells” (INDIANA UNIVERSITY RESEARCH AND TECHNOLOGY CORPORATION, priority 2015, dated 2021)
